Our source for the Ki values is patent US11040970B2, “VMAT2 inhibitor compounds and compositions thereof” (Neurocrine Biosciences, Inc., priority 2017, dated 2021).

The assay deals with VMAT2 (Homo sapiens (Human), UniProt Q05940). Put plainly: VMAT2 radioligand binding assay: competition against 3H-dihydrotetrabenezine on human platelet homogenate (modified procedure). The conditions noted are these: 10 nM 3H-dihydrotetrabenezine, 25° C., 90 minutes. The procedure: Examples of techniques for determining the capability of a compound to inhibit VMAT2 are provided below. The procedure is adapted from that described previously (see, e.g., Near, (1986), Mol. Pharmacol. 30: 252-57; Teng, et al., J. Neurochem. 71, 258-65, 1998). Homogenates from human platelets or Sprague-Dawley rat forebrain were prepared by homogenization and then washed by centrifugation as described previously (see, e.g., Hoare et al., (2003) Peptides 24:1881-97). […] Following incubation at 25° C. for two hours, bound radioligand was collected by rapid filtration onto GF/B glass fiber filters using a Unifilter-96 Harvester (PerkinElmer). Filter plates were pre-treated for 10 minutes with 0.1% polyethylenimine, and following harvesting the filter plates were washed with 800 μl VMAT2 binding buffer. Bound radioligand was quantified by scintillation counting using a Topcount NXT (PerkinElmer).
Sequence of VMAT2 (Q05940 whole entry): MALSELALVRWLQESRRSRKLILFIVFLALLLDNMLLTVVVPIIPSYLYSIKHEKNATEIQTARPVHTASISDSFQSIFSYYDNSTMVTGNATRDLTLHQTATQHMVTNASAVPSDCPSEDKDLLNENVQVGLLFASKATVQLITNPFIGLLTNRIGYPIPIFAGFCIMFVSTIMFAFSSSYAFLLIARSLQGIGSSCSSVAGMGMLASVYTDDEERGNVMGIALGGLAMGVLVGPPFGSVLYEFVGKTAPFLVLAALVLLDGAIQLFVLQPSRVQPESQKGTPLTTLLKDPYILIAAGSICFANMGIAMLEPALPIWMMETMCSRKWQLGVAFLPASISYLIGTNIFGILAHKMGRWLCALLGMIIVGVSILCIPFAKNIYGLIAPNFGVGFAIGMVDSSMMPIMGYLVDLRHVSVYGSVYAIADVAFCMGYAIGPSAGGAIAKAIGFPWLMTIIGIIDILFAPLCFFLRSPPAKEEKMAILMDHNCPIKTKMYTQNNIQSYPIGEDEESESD
Following incubation at 25° C. for 90 minutes, bound radioligand was collected by rapid filtration onto GF/B glass fiber filters using a Unifilter-96 Harvester (PerkinElmer). Filter plates were pre-treated with 0.1% polyethylenimine and allowed to dry overnight, and following harvesting the filter plates were washed with 800 μl VMAT2 binding buffer. Bound radioligand was quantified by scintillation counting using a Topcount NXT (PerkinElmer).
For `CCN1C[C@@H]2c3cc(OC)c(OC)cc3CCN2C[C@H]1CC(C)C` [Compound 2-1, (3R,11bS)-2-ethyl-9,10-dimethoxy-3-(2-methylpropyl)-1H,2H,3H,4H,6H,7H,11bH-piperazino[2,1-a]isoquinoline], the inhibition constant (Ki) was 10 to 500 nM.

`COc1cc2c(cc1OC)[C@H]1CN(C)[C@H](CC(C)C)CN1CC2` [Compound 2-2, (3R,11bS)-9,10-dimethoxy-2-methyl-3-(2-methylpropyl)-1H,2H,3H,4H,6H,7H,11bH-piperazino[2,1-a]isoquinoline] showed an inhibition constant (Ki) of 10 to 500 nM.

Molecule `COc1cc2c(cc1OC)[C@H]1CN(CC(C)C)[C@H](CC(C)C)CN1CC2` [Compound 2-3, (3R,11bS)-9,10-dimethoxy-2,3-bis(2-methylpropyl)-1H,2H,3H,4H,6H,7H,11bH-piperazino[2,1-a]isoquinoline] registered an inhibitory constant (Ki) greater than 500 nM.

The molecule `CCN1C[C@H]2c3cc(OC)c(OC)cc3CCN2C[C@H]1CC(C)C` [Compound 3-1, (3R,11bR)-2-ethyl-9,10-dimethoxy-3-(2-methylpropyl)-1H,2H,3H,4H,6H,7H,11bH-piperazino[2,1-a]isoquinoline] showed a Ki greater than 500 nM.

As for `COc1cc2c(cc1OC)[C@@H]1CN(C)[C@H](CC(C)C)CN1CC2` [Compound 3-2, (3R,11bR)-9,10-dimethoxy-2-methyl-3-(2-methylpropyl)-1H,2H,3H,4H,6H,7H,11bH-piperazino[2,1-a]isoquinoline], the inhibition constant (Ki) is greater than 500 nM.

In turn, `COc1cc2c(cc1OC)[C@@H]1CN(CC(C)C)[C@H](CC(C)C)CN1CC2` [Compound 3-3, (3R,11bR)-9,10-dimethoxy-2,3-bis(2-methylpropyl)-1H,2H,3H,4H,6H,7H,11bH-piperazino[2,1-a]isoquinoline] registered a Ki greater than 500 nM.

`CCOc1cc2c(cc1OC)[C@H]1CN(C)[C@H](CC(C)C)CN1CC2` [Compound 5-1, (3R,11bS)-9-ethoxy-10-methoxy-2-methyl-3-(2-methylpropyl)-1H,2H,3H,4H,6H,7H,11bH-piperazino[2,1-a]isoquinoline]: the Ki was less than 10 nM.

Regarding `COc1cc2c(cc1OC(C)C)CCN1C[C@@H](CC(C)C)N(C)C[C@H]21` [Compound 5-2, (3R,11bS)-10-methoxy-2-methyl-3-(2-methylpropyl)-9-(propan-2-yloxy)-1H,2H,3H,4H,6H,7H,11bH-piperazino[2,1-a]isoquinoline], the inhibitory constant (Ki) lay in the range of 10 to 500 nM.

Molecule `COc1cc2c(cc1OCCCF)CCN1C[C@@H](CC(C)C)N(C)C[C@H]21` [Compound 5-3, (3R,11bS)-9-(3-fluoropropoxy)-10-methoxy-2-methyl-3-(2-methylpropyl)-1H,2H,3H,4H,6H,7H,11bH-piperazino[2,1-a]isoquinoline] registered an inhibition constant (Ki) of 10 to 500 nM.

Take `COc1cc2c(cc1OCCF)CCN1C[C@@H](CC(C)C)N(C)C[C@H]21` [Compound 5-4, (3R,11bS)-9-(2-fluoroethoxy)-10-methoxy-2-methyl-3-(2-methylpropyl)-1H,2H,3H,4H,6H,7H,11bH-piperazino[2,1-a]isoquinoline]: the inhibition constant (Ki) was 10 to 500 nM.

`COc1cc2c(cc1OC1CC1)CCN1C[C@@H](CC(C)C)N(C)C[C@H]21` [Compound 5-5, (3R,11bS)-9-cyclopropoxy-10-methoxy-2-methyl-3-(2-methylpropyl)-1H,2H,3H,4H,6H,7H,11bH-piperazino[2,1-a]isoquinoline] displayed a Ki of 10 to 500 nM.

For the molecule `CCCOc1cc2c(cc1OC)[C@H]1CN(C)[C@H](CC(C)C)CN1CC2` [Compound 5-6, (3R,11bS)-10-methoxy-2-methyl-3-(2-methylpropyl)-9-propoxy-1H,2H,3H,4H,6H,7H,11bH-piperazino[2,1-a]isoquinoline], the Ki was less than 10 nM.

`COc1cc2c(cc1OC1CCCC1)CCN1C[C@@H](CC(C)C)N(C)C[C@H]21` [Compound 5-7, (3R,11bS)-9-(cyclopentyloxy)-10-methoxy-2-methyl-3-(2-methylpropyl)-1H,2H,3H,4H,6H,7H,11bH-piperazino[2,1-a]isoquinoline] displayed a Ki of less than 10 nM.

In turn, `C=CCOc1cc2c(cc1OC)[C@H]1CN(C)[C@H](CC(C)C)CN1CC2` [Compound 5-8, (3R,11bS)-10-methoxy-2-methyl-3-(2-methylpropyl)-9-(prop-2-en-1-yloxy)-1H,2H,3H,4H,6H,7H,11bH-piperazino[2,1-a]isoquinoline] had a Ki of less than 10 nM.

`COc1cc2c(cc1OCC(C)C)CCN1C[C@@H](CC(C)C)N(C)C[C@H]21` [Compound 5-9, (3R,11bS)-10-methoxy-2-methyl-9-(2-methylpropoxy)-3-(2-methylpropyl)-1H,2H,3H,4H,6H,7H,11bH-piperazino[2,1-a]isoquinoline] had an inhibition constant (Ki) of less than 10 nM.

Molecule `COCCOc1cc2c(cc1OC)[C@H]1CN(C)[C@H](CC(C)C)CN1CC2` [Compound 5-10, (3R,11bS)-10-methoxy-9-(2-methoxyethoxy)-2-methyl-3-(2-methylpropyl)-1H,2H,3H,4H,6H,7H,11bH-piperazino[2,1-a]isoquinoline] came in with a Ki of 10 to 500 nM.

Take `COc1cc2c(cc1OCC1CCC1)CCN1C[C@@H](CC(C)C)N(C)C[C@H]21` [Compound 5-11, (3R,11bS)-9-(cyclobutylmethoxy)-10-methoxy-2-methyl-3-(2-methylpropyl)-1H,2H,3H,4H,6H,7H,11bH-piperazino[2,1-a]isoquinoline]: the inhibition constant Ki was less than 10 nM.

Turning to `COc1cc2c(cc1OCCCC#N)CCN1C[C@@H](CC(C)C)N(C)C[C@H]21` [Compound 5-12, 4-{[(3R,11bS)-10-methoxy-2-methyl-3-(2-methylpropyl)-1H,2H,3H,4H,6H,7H,11bH-piperazino[2,1-a]isoquinolin-9-yl]oxy}butanenitrile], the inhibitory constant (Ki) was in the range of 10 to 500 nM.

The molecule `COc1cc2c(cc1OCCCC(F)(F)F)CCN1C[C@@H](CC(C)C)N(C)C[C@H]21` [Compound 5-13, (3R,11bS)-10-methoxy-2-methyl-3-(2-methylpropyl)-9-(4,4,4-trifluorobutoxy)-1H,2H,3H,4H,6H,7H,11bH-piperazino[2,1-a]isoquinoline] registered a Ki of less than 10 nM.

The molecule `COc1cc2c(cc1OCCCCF)CCN1C[C@@H](CC(C)C)N(C)C[C@H]21` [Compound 5-14, (3R,11bS)-9-(4-fluorobutoxy)-10-methoxy-2-methyl-3-(2-methylpropyl)-1H,2H,3H,4H,6H,7H,11bH-piperazino[2,1-a]isoquinoline] registered an inhibitory constant (Ki) of less than 10 nM.

As to `COc1cc2c(cc1OCC1CC1)CCN1C[C@@H](CC(C)C)N(C)C[C@H]21` [Compound 5-15, (3R,11bS)-9-(cyclopropylmethoxy)-10-methoxy-2-methyl-3-(2-methylpropyl)-1H,2H,3H,4H,6H,7H,11bH-piperazino[2,1-a]isoquinoline], the Ki was less than 10 nM.

Consider `COc1cc2c(cc1OC1CCC1)CCN1C[C@@H](CC(C)C)N(C)C[C@H]21` [Compound 5-16, (3R,11bS)-9-cyclobutoxy-10-methoxy-2-methyl-3-(2-methylpropyl)-1H,2H,3H,4H,6H,7H,11bH-piperazino[2,1-a]isoquinoline], for which the Ki is less than 10 nM.

Molecule `COc1cc2c(cc1OCC(F)(F)F)CCN1C[C@@H](CC(C)C)N(C)C[C@H]21` [Compound 5-17, (3R,11bS)-10-methoxy-2-methyl-3-(2-methylpropyl)-9-(2,2,2-trifluoroethoxy)-1H,2H,3H,4H,6H,7H,11bH-piperazino[2,1-a]isoquinoline] registered a Ki of less than 10 nM.

`COc1cc2c(cc1OCC1CC1(F)F)CCN1C[C@@H](CC(C)C)N(C)C[C@H]21` (stereo partly drawn) [Compound 5-18, (3R,11bS)-9-[(2,2-difluorocyclopropyl)methoxy]-10-methoxy-2-methyl-3-(2-methylpropyl)-1H,2H,3H,4H,6H,7H,11bH-piperazino[2,1-a]isoquinoline] came in with an inhibition constant (Ki) of less than 10 nM.

`COc1cc2c(cc1OCCC(F)(F)F)CCN1C[C@@H](CC(C)C)N(C)C[C@H]21` [Compound 5-19, (3R,11bS)-10-methoxy-2-methyl-3-(2-methylpropyl)-9-(3,3,3-trifluoropropoxy)-1H,2H,3H,4H,6H,7H,11bH-piperazino[2,1-a]isoquinoline] had a Ki of less than 10 nM.

Molecule `COc1cc2c(cc1OC(C)C)CCN1C[C@@H](CC(C)C)N(C)C[C@@H]21` [Compound 6-1, (3R,11bR)-10-methoxy-2-methyl-3-(2-methylpropyl)-9-(propan-2-yloxy)-1H,2H,3H,4H,6H,7H,11bH-piperazino[2,1-a]isoquinoline] came in with an inhibition constant Ki greater than 500 nM.

As for `COc1cc2c(cc1OCCCF)CCN1C[C@@H](CC(C)C)N(C)C[C@@H]21` [Compound 6-2, (3R,11bR)-9-(3-fluoropropoxy)-10-methoxy-2-methyl-3-(2-methylpropyl)-1H,2H,3H,4H,6H,7H,11bH-piperazino[2,1-a]isoquinoline], the Ki was greater than 500 nM.

`COc1cc2c(cc1OCCF)CCN1C[C@@H](CC(C)C)N(C)C[C@@H]21` [Compound 6-3, (3R,11bR)-9-(2-fluoroethoxy)-10-methoxy-2-methyl-3-(2-methylpropyl)-1H,2H,3H,4H,6H,7H,11bH-piperazino[2,1-a]isoquinoline]: the Ki is greater than 500 nM.

Molecule `COc1cc2c(cc1OC1CC1)CCN1C[C@@H](CC(C)C)N(C)C[C@@H]21` [Compound 6-4, (3R,11bR)-9-cyclopropoxy-10-methoxy-2-methyl-3-(2-methylpropyl)-1H,2H,3H,4H,6H,7H,11bH-piperazino[2,1-a]isoquinoline] came in with an inhibition constant Ki greater than 500 nM.

One may read the Ki as a dissociation constant, usually derived from enzyme kinetics or from competition with a known ligand. A higher Ki goes with weaker binding.
